In the NIST ThermoML archive (doi:10.1016/j.tca.2006.08.007):
Numbers after ± are expanded uncertainties.

Assay: excess molar enthalpy (molar enthalpy of mixing); xn = mol fraction of the nth substance listed
Settings: 101 kPa, Liquid, Isoperibol calorimetry

CCCCCCO [hexan-1-ol] + CC#N
Settings	excess molar enthalpy [kJ/mol]
288.15 K, x1 = 0.0402	0.438 ± 0.006
288.15 K, x1 = 0.0809	0.788 ± 0.008
288.15 K, x1 = 0.1219	1.069 ± 0.01
288.15 K, x1 = 0.1629	1.286 ± 0.011
288.15 K, x1 = 0.2038	1.464 ± 0.012
288.15 K, x1 = 0.2445	1.615 ± 0.013
288.15 K, x1 = 0.2846	1.75 ± 0.014
288.15 K, x1 = 0.3241	1.855 ± 0.015
288.15 K, x1 = 0.3628	1.951 ± 0.016
288.15 K, x1 = 0.4145	2.079 ± 0.017
288.15 K, x1 = 0.4465	2.104 ± 0.017
288.15 K, x1 = 0.4819	2.092 ± 0.017
288.15 K, x1 = 0.5214	2.055 ± 0.017
288.15 K, x1 = 0.5657	1.998 ± 0.016
288.15 K, x1 = 0.6156	1.91 ± 0.016
288.15 K, x1 = 0.6722	1.778 ± 0.015
288.15 K, x1 = 0.7368	1.595 ± 0.014
288.15 K, x1 = 0.8114	1.29 ± 0.012
288.15 K, x1 = 0.898	0.798 ± 0.009
298.15 K, x1 = 0.0405	0.506 ± 0.007
298.15 K, x1 = 0.0815	0.953 ± 0.009
298.15 K, x1 = 0.1226	1.294 ± 0.011
298.15 K, x1 = 0.1639	1.595 ± 0.014
298.15 K, x1 = 0.205	1.811 ± 0.015
298.15 K, x1 = 0.2457	1.984 ± 0.016
298.15 K, x1 = 0.286	2.118 ± 0.017
298.15 K, x1 = 0.3257	2.192 ± 0.018
298.15 K, x1 = 0.3849	2.271 ± 0.018
298.15 K, x1 = 0.4227	2.318 ± 0.019
298.15 K, x1 = 0.4554	2.329 ± 0.019
298.15 K, x1 = 0.4916	2.325 ± 0.019
298.15 K, x1 = 0.5321	2.298 ± 0.019
298.15 K, x1 = 0.5774	2.242 ± 0.018
298.15 K, x1 = 0.6286	2.116 ± 0.017
298.15 K, x1 = 0.6866	1.967 ± 0.016
298.15 K, x1 = 0.753	1.711 ± 0.014
298.15 K, x1 = 0.8295	1.293 ± 0.011
298.15 K, x1 = 0.9187	0.69 ± 0.007
298.15 K, x1 = 0.958	0.39 ± 0.006
313.15 K, x1 = 0.0408	0.551 ± 0.008
313.15 K, x1 = 0.0819	0.995 ± 0.01
313.15 K, x1 = 0.1233	1.332 ± 0.012
313.15 K, x1 = 0.1648	1.596 ± 0.014
313.15 K, x1 = 0.206	1.84 ± 0.015
313.15 K, x1 = 0.247	2.034 ± 0.017
313.15 K, x1 = 0.2874	2.155 ± 0.018
313.15 K, x1 = 0.3271	2.254 ± 0.018
313.15 K, x1 = 0.3888	2.387 ± 0.019
313.15 K, x1 = 0.4178	2.419 ± 0.02
313.15 K, x1 = 0.4498	2.441 ± 0.02
313.15 K, x1 = 0.4853	2.444 ± 0.02
313.15 K, x1 = 0.5248	2.415 ± 0.019
313.15 K, x1 = 0.569	2.341 ± 0.019
313.15 K, x1 = 0.6188	2.222 ± 0.018
313.15 K, x1 = 0.6752	2.043 ± 0.017
313.15 K, x1 = 0.7395	1.82 ± 0.015
313.15 K, x1 = 0.8134	1.479 ± 0.013
313.15 K, x1 = 0.8993	0.937 ± 0.009
323.15 K, x1 = 0.041	0.57 ± 0.008
323.15 K, x1 = 0.0823	1.026 ± 0.01
323.15 K, x1 = 0.1239	1.379 ± 0.012
323.15 K, x1 = 0.1655	1.674 ± 0.014
323.15 K, x1 = 0.2069	1.9 ± 0.016
323.15 K, x1 = 0.2479	2.113 ± 0.017
323.15 K, x1 = 0.2884	2.285 ± 0.019
323.15 K, x1 = 0.3282	2.406 ± 0.019
323.15 K, x1 = 0.39	2.619 ± 0.021
323.15 K, x1 = 0.419	2.671 ± 0.021
323.15 K, x1 = 0.451	2.685 ± 0.022
323.15 K, x1 = 0.4865	2.658 ± 0.021
323.15 K, x1 = 0.526	2.607 ± 0.021
323.15 K, x1 = 0.5702	2.511 ± 0.02
323.15 K, x1 = 0.6199	2.384 ± 0.019
323.15 K, x1 = 0.6762	2.178 ± 0.018
323.15 K, x1 = 0.7404	1.895 ± 0.016
323.15 K, x1 = 0.8142	1.49 ± 0.013
323.15 K, x1 = 0.8997	0.933 ± 0.009

CCCCCO [pentan-1-ol] + CC#N
Settings	excess molar enthalpy [kJ/mol]
288.15 K, x1 = 0.0461	0.449 ± 0.006
288.15 K, x1 = 0.0922	0.822 ± 0.008
288.15 K, x1 = 0.1379	1.126 ± 0.01
288.15 K, x1 = 0.1833	1.342 ± 0.011
288.15 K, x1 = 0.2279	1.523 ± 0.013
288.15 K, x1 = 0.2717	1.633 ± 0.014
288.15 K, x1 = 0.3144	1.8 ± 0.015
288.15 K, x1 = 0.356	1.866 ± 0.016
288.15 K, x1 = 0.3963	1.906 ± 0.016
288.15 K, x1 = 0.4494	1.931 ± 0.016
288.15 K, x1 = 0.4818	1.938 ± 0.016
288.15 K, x1 = 0.5174	1.933 ± 0.016
288.15 K, x1 = 0.5567	1.903 ± 0.016
288.15 K, x1 = 0.6002	1.846 ± 0.015
288.15 K, x1 = 0.6486	1.752 ± 0.014
288.15 K, x1 = 0.7027	1.623 ± 0.013
288.15 K, x1 = 0.7635	1.421 ± 0.012
288.15 K, x1 = 0.8322	1.144 ± 0.01
288.15 K, x1 = 0.9103	0.678 ± 0.007
298.15 K, x1 = 0.0464	0.505 ± 0.007
298.15 K, x1 = 0.0927	0.9 ± 0.009
298.15 K, x1 = 0.1386	1.217 ± 0.011
298.15 K, x1 = 0.1841	1.469 ± 0.012
298.15 K, x1 = 0.2289	1.656 ± 0.014
298.15 K, x1 = 0.2728	1.796 ± 0.015
298.15 K, x1 = 0.3157	1.897 ± 0.016
298.15 K, x1 = 0.3574	1.966 ± 0.016
298.15 K, x1 = 0.4188	2.006 ± 0.016
298.15 K, x1 = 0.4833	2.017 ± 0.016
298.15 K, x1 = 0.5189	1.997 ± 0.016
298.15 K, x1 = 0.5582	1.951 ± 0.016
298.15 K, x1 = 0.6016	1.883 ± 0.015
298.15 K, x1 = 0.65	1.8 ± 0.015
298.15 K, x1 = 0.7039	1.664 ± 0.014
298.15 K, x1 = 0.7645	1.451 ± 0.012
298.15 K, x1 = 0.833	1.154 ± 0.01
298.15 K, x1 = 0.9108	0.7 ± 0.007
313.15 K, x1 = 0.0467	0.521 ± 0.007
313.15 K, x1 = 0.0933	0.949 ± 0.009
313.15 K, x1 = 0.1395	1.282 ± 0.011
313.15 K, x1 = 0.1852	1.532 ± 0.013
313.15 K, x1 = 0.2302	1.719 ± 0.014
313.15 K, x1 = 0.2742	1.864 ± 0.015
313.15 K, x1 = 0.3172	1.97 ± 0.016
313.15 K, x1 = 0.359	2.049 ± 0.017
313.15 K, x1 = 0.4229	2.131 ± 0.017
313.15 K, x1 = 0.4526	2.145 ± 0.017
313.15 K, x1 = 0.485	2.151 ± 0.017
313.15 K, x1 = 0.5207	2.124 ± 0.017
313.15 K, x1 = 0.5599	2.074 ± 0.017
313.15 K, x1 = 0.6033	2.001 ± 0.016
313.15 K, x1 = 0.6516	1.903 ± 0.016
313.15 K, x1 = 0.7054	1.758 ± 0.014
313.15 K, x1 = 0.7658	1.56 ± 0.013
313.15 K, x1 = 0.834	1.241 ± 0.011
313.15 K, x1 = 0.9114	0.776 ± 0.008
323.15 K, x1 = 0.0469	0.531 ± 0.007
323.15 K, x1 = 0.0937	0.975 ± 0.01
323.15 K, x1 = 0.1401	1.315 ± 0.011
323.15 K, x1 = 0.1859	1.557 ± 0.013
323.15 K, x1 = 0.231	1.759 ± 0.015
323.15 K, x1 = 0.2752	1.916 ± 0.016
323.15 K, x1 = 0.3183	2.021 ± 0.016
323.15 K, x1 = 0.3601	2.133 ± 0.017
323.15 K, x1 = 0.4006	2.194 ± 0.018
323.15 K, x1 = 0.4538	2.305 ± 0.019
323.15 K, x1 = 0.4863	2.327 ± 0.019
323.15 K, x1 = 0.5219	2.303 ± 0.019
323.15 K, x1 = 0.5611	2.243 ± 0.018
323.15 K, x1 = 0.6045	2.143 ± 0.017
323.15 K, x1 = 0.6527	2.049 ± 0.017
323.15 K, x1 = 0.7064	1.895 ± 0.016
323.15 K, x1 = 0.7667	1.716 ± 0.014
323.15 K, x1 = 0.8346	1.402 ± 0.012
323.15 K, x1 = 0.9118	0.906 ± 0.009
